Key:
[1] = Oral bioavailability in fasted Sprague-Dawley rat at 10 mg/kg measured for 24 hrs by LC-MS/MS analysis; assay type: ADME, organism-based; settings: in vivo
[2] = AUC (0 to t) in fasted Sprague-Dawley rat at 2 mg/kg, iv measured for 24 hrs by LC-MS/MS analysis; assay type: ADME, organism-based; settings: in vivo
[3] = Cmax in fasted Sprague-Dawley rat at 10 mg/kg, po measured for 24 hrs by LC-MS/MS analysis; assay type: ADME, organism-based; settings: in vivo
[4] = biological target: Phosphatidylinositol 4,5-bisphosphate 3-kinase catalytic subunit alpha isoform (Homo sapiens, UniProt P42336); experiment: Inhibition of PI3Kalpha (unknown origin) using PIP2 as substrate incubated for 60 mins in presence of ATP by ADP-Glo assay
Chain of Phosphatidylinositol 4,5-bisphosphate 3-kinase catalytic subunit alpha isoform (P42336 whole entry, canonical isoform): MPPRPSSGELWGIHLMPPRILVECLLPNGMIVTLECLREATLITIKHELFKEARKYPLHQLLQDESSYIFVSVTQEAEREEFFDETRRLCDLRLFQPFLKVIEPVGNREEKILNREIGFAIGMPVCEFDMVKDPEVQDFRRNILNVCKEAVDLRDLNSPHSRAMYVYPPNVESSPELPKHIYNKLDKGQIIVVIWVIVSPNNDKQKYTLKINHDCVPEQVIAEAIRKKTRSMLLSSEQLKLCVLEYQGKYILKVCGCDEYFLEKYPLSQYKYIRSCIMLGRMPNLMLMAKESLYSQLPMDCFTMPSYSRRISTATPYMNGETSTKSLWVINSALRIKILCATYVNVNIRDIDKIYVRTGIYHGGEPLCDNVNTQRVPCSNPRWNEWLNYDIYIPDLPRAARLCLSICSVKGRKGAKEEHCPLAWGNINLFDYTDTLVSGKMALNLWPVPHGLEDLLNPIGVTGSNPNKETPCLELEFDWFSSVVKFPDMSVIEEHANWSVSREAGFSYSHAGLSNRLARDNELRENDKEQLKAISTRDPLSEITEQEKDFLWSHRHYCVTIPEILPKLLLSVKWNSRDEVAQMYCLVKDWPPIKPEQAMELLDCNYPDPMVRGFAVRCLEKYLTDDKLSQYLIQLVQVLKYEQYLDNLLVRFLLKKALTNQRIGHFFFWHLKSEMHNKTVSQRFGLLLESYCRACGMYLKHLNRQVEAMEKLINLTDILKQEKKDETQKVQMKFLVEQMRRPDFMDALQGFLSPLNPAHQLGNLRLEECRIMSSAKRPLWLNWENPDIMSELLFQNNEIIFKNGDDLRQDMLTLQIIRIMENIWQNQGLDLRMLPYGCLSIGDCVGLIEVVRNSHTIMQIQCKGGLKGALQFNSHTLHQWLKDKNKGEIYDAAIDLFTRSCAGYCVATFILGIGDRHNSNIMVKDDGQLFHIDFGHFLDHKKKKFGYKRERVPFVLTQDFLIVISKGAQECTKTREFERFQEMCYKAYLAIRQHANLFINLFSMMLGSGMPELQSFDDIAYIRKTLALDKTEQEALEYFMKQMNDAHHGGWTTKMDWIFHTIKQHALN

[5] = Toxicity in nude BALB/c mouse xenografted with human HL-60 cells assessed as toxic sign in lung at 5 to 10 mg/kg, ip administered for 21 days consecutively by H and E staining based analysis; assay type: organism-based; settings: in vivo, 504 h, dose 5-10 mg/kg, time 21 day
[6] = MRT (infinity) in fasted Sprague-Dawley rat at 2 mg/kg, iv measured for 24 hrs by LC-MS/MS analysis; assay type: ADME, organism-based; settings: in vivo
[7] = AUC (0 to infinity) in fasted Sprague-Dawley rat at 2 mg/kg, iv measured for 24 hrs by LC-MS/MS analysis; assay type: ADME, organism-based; settings: in vivo
[8] = AUC (0 to infinity) in fasted Sprague-Dawley rat at 10 mg/kg, po measured for 24 hrs by LC-MS/MS analysis; assay type: ADME, organism-based; settings: in vivo
[9] = biological target: Phosphatidylinositol 4,5-bisphosphate 3-kinase catalytic subunit gamma isoform (Homo sapiens, UniProt P48736); experiment: Inhibition of PI3Kgamma (unknown origin) using PIP2 as substrate incubated for 60 mins in presence of ATP by ADP-Glo assay
Chain of Phosphatidylinositol 4,5-bisphosphate 3-kinase catalytic subunit gamma isoform (P48736 whole entry, canonical isoform): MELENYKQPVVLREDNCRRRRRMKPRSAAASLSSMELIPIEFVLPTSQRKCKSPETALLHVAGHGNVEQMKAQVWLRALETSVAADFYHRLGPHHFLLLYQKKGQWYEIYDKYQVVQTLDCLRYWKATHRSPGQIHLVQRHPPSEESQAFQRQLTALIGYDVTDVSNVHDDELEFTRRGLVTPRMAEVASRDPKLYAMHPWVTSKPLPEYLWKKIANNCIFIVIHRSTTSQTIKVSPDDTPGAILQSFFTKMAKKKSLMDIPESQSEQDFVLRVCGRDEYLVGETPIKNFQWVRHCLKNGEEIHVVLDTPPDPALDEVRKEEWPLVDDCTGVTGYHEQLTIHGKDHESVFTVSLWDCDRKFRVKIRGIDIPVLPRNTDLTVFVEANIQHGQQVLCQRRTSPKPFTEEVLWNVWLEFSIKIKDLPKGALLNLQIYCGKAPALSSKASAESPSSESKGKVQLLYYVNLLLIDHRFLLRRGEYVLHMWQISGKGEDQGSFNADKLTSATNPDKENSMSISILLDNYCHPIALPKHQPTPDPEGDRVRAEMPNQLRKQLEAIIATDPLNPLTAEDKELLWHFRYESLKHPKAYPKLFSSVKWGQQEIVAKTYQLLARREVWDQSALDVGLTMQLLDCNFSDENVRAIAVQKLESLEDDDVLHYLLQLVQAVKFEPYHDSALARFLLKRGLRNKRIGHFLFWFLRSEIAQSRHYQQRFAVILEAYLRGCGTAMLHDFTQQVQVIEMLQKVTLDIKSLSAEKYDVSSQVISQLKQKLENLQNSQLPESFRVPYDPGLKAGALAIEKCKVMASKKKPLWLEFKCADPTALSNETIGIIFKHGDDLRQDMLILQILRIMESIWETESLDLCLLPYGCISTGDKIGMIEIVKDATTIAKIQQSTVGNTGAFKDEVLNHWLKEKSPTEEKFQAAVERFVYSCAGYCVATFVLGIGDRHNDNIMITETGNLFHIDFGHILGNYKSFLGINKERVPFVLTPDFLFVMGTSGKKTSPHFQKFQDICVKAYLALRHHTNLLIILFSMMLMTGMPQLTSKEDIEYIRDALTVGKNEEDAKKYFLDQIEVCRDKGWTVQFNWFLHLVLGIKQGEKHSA

[10] = Toxicity in nude BALB/c mouse xenografted with human HL-60 cells assessed as toxic sign in spleen at 5 to 10 mg/kg, ip administered for 21 days consecutively by H and E staining based analysis; assay type: organism-based; settings: in vivo, 504 h, dose 5-10 mg/kg, time 21 day
[11] = system: HL-60; experiment: Induction of apoptosis in human HL-60 cells assessed as viable cells at 0.25 uM incubated for 48 hrs by Annexin V-FITC/PI staining based flow cytometry (reference value: 97.4 %); assay type: functional; settings: read-out: Activity
[12] = Apparent volume of distribution in fasted Sprague-Dawley rat at 2 mg/kg, iv measured for 24 hrs by LC-MS/MS analysis; assay type: ADME, organism-based; settings: in vivo, read-out: Vz
[13] = Half life in fasted Sprague-Dawley rat at 10 mg/kg, po measured for 24 hrs by LC-MS/MS analysis; assay type: ADME, organism-based; settings: in vivo
[14] = Tmax in fasted Sprague-Dawley rat at 10 mg/kg, po measured for 24 hrs by LC-MS/MS analysis; assay type: ADME, organism-based; settings: in vivo
[15] = Toxicity in nude BALB/c mouse xenografted with human HL-60 cells assessed as toxic sign in kidney at 5 to 10 mg/kg, ip administered for 21 days consecutively by H and E staining based analysis; assay type: organism-based; settings: in vivo, 504 h, dose 5-10 mg/kg, time 21 day
[16] = system: HL-60; experiment: Induction of apoptosis in human HL-60 cells assessed as viable cells at 1 uM incubated for 48 hrs by Annexin V-FITC/PI staining based flow cytometry (reference value: 97.4 %); assay type: functional; settings: read-out: Activity
[17] = Toxicity in nude BALB/c mouse xenografted with human HL-60 cells assessed as toxic sign in liver at 5 to 10 mg/kg, ip administered for 21 days consecutively by H and E staining based analysis; assay type: organism-based; settings: in vivo, 504 h, dose 5-10 mg/kg, time 21 day
[18] = Toxicity in nude BALB/c mouse xenografted with human HL-60 cells assessed as toxic sign in heart at 5 to 10 mg/kg, ip administered for 21 days consecutively by H and E staining based analysis; assay type: organism-based; settings: in vivo, 504 h, dose 5-10 mg/kg, time 21 day
[19] = system: HL-60; experiment: Induction of apoptosis in human HL-60 cells assessed as viable cells at 0.5 uM incubated for 48 hrs by Annexin V-FITC/PI staining based flow cytometry (reference value: 97.4 %); assay type: functional; settings: read-out: Activity
[20] = biological target: Phosphatidylinositol 4,5-bisphosphate 3-kinase catalytic subunit beta isoform (Homo sapiens, UniProt P42338); experiment: Inhibition of PI3Kbeta (unknown origin) using PIP2 as substrate incubated for 60 mins in presence of ATP by ADP-Glo assay
Chain of Phosphatidylinositol 4,5-bisphosphate 3-kinase catalytic subunit beta isoform (P42338 whole entry, canonical isoform): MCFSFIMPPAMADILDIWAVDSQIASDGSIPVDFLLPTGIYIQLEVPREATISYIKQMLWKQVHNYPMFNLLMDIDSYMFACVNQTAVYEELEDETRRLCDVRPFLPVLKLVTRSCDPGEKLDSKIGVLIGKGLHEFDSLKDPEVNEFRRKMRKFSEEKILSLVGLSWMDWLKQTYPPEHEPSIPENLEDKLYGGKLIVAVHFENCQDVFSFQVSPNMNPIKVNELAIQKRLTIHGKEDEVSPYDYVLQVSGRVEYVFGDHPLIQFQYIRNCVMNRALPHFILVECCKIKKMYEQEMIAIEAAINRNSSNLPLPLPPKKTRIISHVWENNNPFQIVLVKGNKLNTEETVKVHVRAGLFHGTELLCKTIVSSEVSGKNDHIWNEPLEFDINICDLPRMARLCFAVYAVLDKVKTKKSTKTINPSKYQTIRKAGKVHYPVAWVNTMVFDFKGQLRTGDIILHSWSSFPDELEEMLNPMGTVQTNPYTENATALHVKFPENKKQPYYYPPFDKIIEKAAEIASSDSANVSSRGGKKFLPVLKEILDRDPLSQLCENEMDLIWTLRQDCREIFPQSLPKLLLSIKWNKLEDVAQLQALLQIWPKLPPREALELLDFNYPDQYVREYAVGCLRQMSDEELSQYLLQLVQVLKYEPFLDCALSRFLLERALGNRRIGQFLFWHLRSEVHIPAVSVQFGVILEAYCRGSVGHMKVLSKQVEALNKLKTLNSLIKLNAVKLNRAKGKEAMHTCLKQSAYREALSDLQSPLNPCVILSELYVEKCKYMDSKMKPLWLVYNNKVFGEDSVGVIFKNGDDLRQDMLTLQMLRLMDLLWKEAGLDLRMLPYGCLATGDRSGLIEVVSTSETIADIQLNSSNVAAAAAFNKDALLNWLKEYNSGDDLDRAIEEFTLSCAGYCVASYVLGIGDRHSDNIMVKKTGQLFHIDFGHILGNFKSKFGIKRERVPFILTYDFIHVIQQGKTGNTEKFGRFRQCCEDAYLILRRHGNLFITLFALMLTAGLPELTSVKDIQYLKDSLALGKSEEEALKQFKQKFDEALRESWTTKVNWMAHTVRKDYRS

[21] = Toxicity in nude BALB/c mouse xenografted with human HL-60 cells assessed as body weight change at 5 to 10 mg/kg, ip administered for 21 days consecutively; assay type: organism-based; settings: in vivo, 504 h, dose 5-10 mg/kg, time 21 day
[22] = AUC (0 to t) in fasted Sprague-Dawley rat at 10 mg/kg, po measured for 24 hrs by LC-MS/MS analysis; assay type: ADME, organism-based; settings: in vivo
[23] = Half life in fasted Sprague-Dawley rat at 2 mg/kg, iv measured for 24 hrs by LC-MS/MS analysis; assay type: ADME, organism-based; settings: in vivo
[24] = Clearance in fasted Sprague-Dawley rat at 2 mg/kg, iv measured for 24 hrs by LC-MS/MS analysis; assay type: ADME, organism-based; settings: in vivo
[25] = biological target: Serine/threonine-protein kinase mTOR (Homo sapiens, UniProt P42345); experiment: Inhibition of N-terminal FLAG-tagged recombinant human mTOR (1362 to end residues) using ULight-4E-BP1 (Thr37/46) peptide as substrate incubated for 30 mins in presence of ATP by LANCE ultra assay
[26] = biological target: T1, Phosphatidylinositol 4,5-bisphosphate 3-kinase catalytic subunit delta isoform (Homo sapiens, UniProt O00329); experiment: Inhibition of PI3Kdelta (unknown origin) using PIP2 as substrate incubated for 60 mins in presence of ATP by ADP-Glo assay
T1 sequence (O00329 whole entry): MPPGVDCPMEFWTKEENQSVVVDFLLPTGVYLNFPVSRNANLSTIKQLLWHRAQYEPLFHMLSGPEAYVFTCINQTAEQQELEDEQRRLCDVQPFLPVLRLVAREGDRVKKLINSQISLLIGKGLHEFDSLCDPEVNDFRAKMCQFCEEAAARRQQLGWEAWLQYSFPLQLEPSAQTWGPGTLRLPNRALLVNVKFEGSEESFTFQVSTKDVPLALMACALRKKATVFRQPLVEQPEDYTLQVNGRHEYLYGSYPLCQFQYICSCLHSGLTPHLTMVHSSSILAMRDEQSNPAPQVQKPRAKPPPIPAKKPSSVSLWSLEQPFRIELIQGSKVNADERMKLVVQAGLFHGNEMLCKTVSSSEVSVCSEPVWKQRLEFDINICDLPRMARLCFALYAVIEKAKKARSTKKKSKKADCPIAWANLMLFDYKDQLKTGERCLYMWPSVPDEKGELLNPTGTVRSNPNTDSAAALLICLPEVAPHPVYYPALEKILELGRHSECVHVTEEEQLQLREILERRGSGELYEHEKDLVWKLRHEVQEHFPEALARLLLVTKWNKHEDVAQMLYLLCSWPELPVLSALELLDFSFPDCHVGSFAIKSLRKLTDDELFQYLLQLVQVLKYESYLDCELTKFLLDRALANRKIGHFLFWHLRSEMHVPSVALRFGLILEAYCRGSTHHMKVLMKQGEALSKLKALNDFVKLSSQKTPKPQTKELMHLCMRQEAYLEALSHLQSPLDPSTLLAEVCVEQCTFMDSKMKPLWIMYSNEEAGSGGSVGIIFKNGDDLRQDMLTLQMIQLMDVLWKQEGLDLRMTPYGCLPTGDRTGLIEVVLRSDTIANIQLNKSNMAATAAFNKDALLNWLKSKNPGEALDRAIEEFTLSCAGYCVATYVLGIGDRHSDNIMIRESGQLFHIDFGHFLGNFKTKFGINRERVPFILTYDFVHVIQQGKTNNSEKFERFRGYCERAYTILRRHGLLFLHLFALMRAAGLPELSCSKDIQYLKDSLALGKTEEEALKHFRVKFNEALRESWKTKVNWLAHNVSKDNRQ

[27] = Toxicity in nude BALB/c mouse xenografted with human HL-60 cells assessed as toxic sign in lung at 5 mg/kg, ip administered for 21 days consecutively by H and E staining based analysis; assay type: organism-based; settings: in vivo, 504 h, time 21 day
[28] = Toxicity in nude BALB/c mouse xenografted with human HL-60 cells assessed as toxic sign in kidney at 5 mg/kg, ip administered for 21 days consecutively by H and E staining based analysis; assay type: organism-based; settings: in vivo, 504 h, time 21 day
[29] = Toxicity in nude BALB/c mouse xenografted with human HL-60 cells assessed as toxic sign in heart at 5 mg/kg, ip administered for 21 days consecutively by H and E staining based analysis; assay type: organism-based; settings: in vivo, 504 h, time 21 day
[30] = system: HL-60; experiment: Antiproliferative activity against human HL-60 cells incubated for 48 hrs by CCK8 assay; assay type: functional, cell-based; settings: HL-60, 48 h
[31] = system: HL-60; experiment: Antitumor activity against human HL-60 cells xenografted in nude BALB/c mouse assessed as tumor growth inhibition at 5 mg/kg, ip administered for 21 days consecutively relative to control; assay type: functional; settings: HL-60, 504 h, time 21 day, read-out: TGI
[32] = Toxicity in nude BALB/c mouse xenografted with human HL-60 cells assessed as toxic sign in liver at 5 mg/kg, ip administered for 21 days consecutively by H and E staining based analysis; assay type: organism-based; settings: in vivo, 504 h, time 21 day
[33] = Antiproliferative activity against human MOLM16 cells incubated for 48 hrs by CCK8 assay; settings: MOLM16, 48 h
[34] = Toxicity in nude BALB/c mouse xenografted with human HL-60 cells assessed as toxic sign in spleen at 5 mg/kg, ip administered for 21 days consecutively by H and E staining based analysis; assay type: organism-based; settings: in vivo, 504 h, time 21 day
[35] = system: MV4-11; experiment: Antiproliferative activity against human MV4-11 cells incubated for 48 hrs by CCK8 assay; assay type: functional, cell-based; settings: MV4-11, 48 h
[36] = system: KG-1; experiment: Antiproliferative activity against human KG-1 cells incubated for 48 hrs by CCK8 assay; assay type: functional, cell-based; settings: KG-1, 48 h
[37] = Toxicity in nude BALB/c mouse xenografted with human HL-60 cells assessed as body weight change at 5 mg/kg, ip administered for 21 days consecutively; assay type: organism-based; settings: in vivo, 504 h, time 21 day
[38] = system: EOL1; experiment: Antiproliferative activity against human EOL1 cells incubated for 48 hrs by CCK8 assay; assay type: functional, cell-based; settings: EOL1, 48 h

SMILES: O=S(=O)(Nc1cc(-c2cnc3[nH]nc(-c4ccncc4)c3c2)cnc1Cl)c1ccc(F)cc1
- bioavailability [1]: 2.68%
- AUC(0-t) at 24 h [2]: 898 ng·h/mL
- Cmax [3]: 15.5 ng/mL
- IC50 [4]: 0.65 nM
- Activity [5]: Non-Toxic
- MRT inf [6]: 0.593 h
- AUC(0-inf) [7]: 903 ng·h/mL
- AUC(0-inf) [8]: 121 ng·h/mL
- IC50 [9]: 0.65 nM
- Activity [10]: Non-Toxic
- viability at 0.25 µM [11]: 96.4%
- Vd [12]: 7.26 L/kg
- half-life [13]: 4.48 h
- Tmax [14]: 2.8 h
- Activity [15]: Non-Toxic
- viability at 1 µM [16]: 53.5%
- Activity [17]: Non-Toxic
- Activity [18]: Non-Toxic
- viability at 0.5 µM [19]: 90.4%
- IC50 [20]: 1.57 nM
- Activity [21]: Non-Toxic
- AUC(0-t) at 24 h [22]: 104 ng·h/mL
- half-life [23]: 2.29 h
- clearance [24]: 37 mL/min/kg

SMILES: O=S(=O)(Nc1cc(-c2cnc3[nH]nc(-c4ccccc4)c3c2)cnc1Cl)c1ccccc1
- IC50 [25]: 2.65 nM
- IC50 [26]: 1.24 nM

SMILES: Cn1c(=O)n(-c2ccc(C(C)(C)C#N)cc2)c2c3cc(-c4cnc5ccccc5c4)ccc3ncc21 [DACTOLISIB]
- Activity [27]: Non-Toxic
- Activity [28]: Non-Toxic
- Activity [29]: Non-Toxic
- IC50 [30]: 510 nM
- inhibition in vivo at 5 mg/kg [31]: 62%
- Activity [32]: Non-Toxic
- IC50 [33]: 500 nM
- Activity [34]: Non-Toxic
- IC50 [35]: 30 nM
- IC50 [36]: 1310 nM
- Activity [37]: Non-Toxic
- IC50 [38]: 1050 nM

SMILES: O=S(=O)(Nc1cc(-c2cnc3[nH]nc(-c4ccncc4)c3c2)cnc1Cl)c1ccccc1
- IC50 [4]: 1.17 nM
- IC50 [25]: 4.26 nM
- IC50 [9]: 7.37 nM
- IC50 [20]: 4.37 nM
- IC50 [26]: 0.67 nM

SMILES: O=S(=O)(Nc1cc(-c2cnc3[nH]ncc3c2)cnc1Cl)c1ccccc1
- IC50 [25]: 32.2 nM
